As a reminder, the IC50 is the midpoint of a concentration-inhibition curve. Read a high IC50 as weaker potency.

The results in this text go back to US6013648A, “CB2 Receptor agonist compounds” (Sanofi, priority 1995, dated 2000).

One test concerns human B cells. Description: DNA synthesis rate (thymidine absorption) of human B cells co-stimulated with anti-Ig antibodies. The class given is cell-based. Particulars: for increase in the thymidine absorption (DNA synthesis rate): nanomolar concentrations, human B cells co-stimulated with anti-Ig antibodies. From the text: It has been shown that, at nanomolar concentrations, compounds according to the invention, such as 3-(morpholin-4-ylmethyl)-5-methyl-6-(naphth-1-ylcarbonyl)-2,3-dihydropyrrolo[1,2,3-de]-1,4-benzoxazine methanesulfonate and 1-(2-(morpholin-4-yl)ethyl)-2-methyl-3-(naphth-1-ylcarbonyl)-7-methoxyindole, are capable of substantially increasing the DNA synthesis rate of human B cells co-stimulated with anti-Ig antibodies (increase of about 40% in the thymidine absorption).

Test [1] has as its target T1, CB1 receptors expressed in CHO cells (Homo sapiens, UniProt P21554).
T1 construct: expressed in transfected cells; host or cells: CHO cells
Description: forskolin-stimulated cAMP production / adenylate cyclase inhibition, CB1. The class given is cell-based. The method, then:
The tests were carried out under the experimental conditions described by Matsuda et al. (Nature, 1990, 346, 561-564).
In general terms: cAMP levels reflect the balance of adenylyl cyclase and phosphodiesterase activity.

For test [2], the target named is T2, human CB2 cannabinoid receptors (Homo sapiens, UniProt P34972).
T2 construct: expressed in transfected cells; host or cells: probably CHO cells (the print may tie CHO to CB1 only)
T2 sequence (P34972 whole entry): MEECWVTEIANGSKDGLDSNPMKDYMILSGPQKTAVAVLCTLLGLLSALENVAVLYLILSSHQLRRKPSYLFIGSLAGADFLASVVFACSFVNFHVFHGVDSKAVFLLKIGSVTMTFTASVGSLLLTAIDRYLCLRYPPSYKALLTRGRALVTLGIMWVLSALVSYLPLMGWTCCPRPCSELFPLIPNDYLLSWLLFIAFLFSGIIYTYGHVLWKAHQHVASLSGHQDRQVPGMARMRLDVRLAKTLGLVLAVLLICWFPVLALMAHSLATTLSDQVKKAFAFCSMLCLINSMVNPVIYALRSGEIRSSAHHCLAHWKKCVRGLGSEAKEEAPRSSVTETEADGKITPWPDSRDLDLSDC
Description: forskolin-stimulated cAMP production / adenylate cyclase inhibition, CB2. The class given is cell-based. The method, then:
Furthermore, the compounds according to the invention behave in vitro as specific agonists for the human CB2 cannabinoid receptors relative to the CB1 receptors expressed in CHO cells. In fact, by binding specifically to the CB2 receptors, they reduce forskolin-stimulated cAMP production by inhibiting the adenylate cyclase. The tests were carried out under the experimental conditions described by Matsuda et al. (Nature, 1990, 346, 561-564).
By way of example, the following adenylate cyclase 50% inhibitory concentrations, IC50, were calculated for 1-(2-(morpholin-4-yl)ethyl)-2-methyl-3-(4-bromonaphth-1-ylcarbonyl)-7-methoxyindole: […]

Test [3] has as its target T3, central human receptors (CB1) (Homo sapiens, UniProt P21554).
T3 construct: expressed in transfected cells; host or cells: Chinese hamster ovary (CHO) cells
Description: affinity binding test, membranes from cell lines expressing CB1. Here is the method:
(§1) Affinity binding tests were carried out under the experimental conditions described by Devane et al. (Molecular Pharmacology (1988) 34, 605-613) with membranes derived from cell lines in which the CB1 and CB2 receptors were expressed (Munro et al., Nature (1993) 365, 561-565).

Test [4] addresses T4, peripheral human cannabinoid receptors (CB2) (Homo sapiens, UniProt P34972).
T4 construct: expressed in transfected cells; host or cells: cell line expressing CB2 (probably CHO; the print may tie CHO to CB1 only)
Description: affinity binding test, membranes from cell lines expressing CB2. The note with it: in vitro binding; read-out: affinity for the CB2 receptor. Here is the method:
as §1

T3 sequence (P21554 whole entry): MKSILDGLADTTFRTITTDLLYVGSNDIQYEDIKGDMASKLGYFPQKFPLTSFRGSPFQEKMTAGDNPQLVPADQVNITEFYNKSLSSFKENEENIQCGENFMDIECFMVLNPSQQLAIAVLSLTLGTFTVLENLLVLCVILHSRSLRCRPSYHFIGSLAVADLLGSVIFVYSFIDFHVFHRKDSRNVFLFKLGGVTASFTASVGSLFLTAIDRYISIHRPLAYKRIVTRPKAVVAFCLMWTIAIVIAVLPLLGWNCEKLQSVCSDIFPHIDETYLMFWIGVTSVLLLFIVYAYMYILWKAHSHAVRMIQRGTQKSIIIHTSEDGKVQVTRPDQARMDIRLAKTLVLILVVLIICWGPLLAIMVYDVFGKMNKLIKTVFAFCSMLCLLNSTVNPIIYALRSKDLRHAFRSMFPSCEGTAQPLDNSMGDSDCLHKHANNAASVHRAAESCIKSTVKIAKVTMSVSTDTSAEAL
T1 sequence (P21554 whole entry): as above
T4 sequence (P34972 whole entry): as the sequence (P34972 whole entry) above

As to `CS(=O)(=O)O.Cc1c(C(=O)c2cccc3ccccc23)c2cccc3c2n1C(CN1CCOCC1)CO3` (single isomer, unassigned) [3-(morpholin-4-ylmethyl)-5-methyl-6-(naphth-1-ylcarbonyl)-2,3-dihydropyrrolo[1,2,3-de]-1,4-benzoxazine methanesulfonate], the “increase in the thymidine absorption (DNA synthesis rate)” value with human B cells was “about 40%”.

On to `COc1cccc2c(C(=O)c3cccc4ccccc34)c(C)n(CCN3CCOCC3)c12` [Compound 6, 1-(2-(morpholin-4-yl)ethyl)-2-methyl-3-(naphth-1-ylcarbonyl)-7-methoxyindole], for which, in the test on human B cells, the “increase in the thymidine absorption (DNA synthesis rate)” value is “about 40%”. For `COc1cccc2c(C(=O)c3ccc(Br)c4ccccc34)c(C)n(CCN3CCOCC3)c12` [Compound 22, 1-(2-(Morpholin-4-yl)ethyl)-2-methyl-3-(4-bromonaphth-1-ylcarbonyl)-7-methoxyindole], the IC50 in test [1] amounted to 1000 nM; in test [2], 1 nM. The Ki was more than 1000 nM in test [3] and 1.8 nM in test [4].

As to `Cc1c(C(=O)NN2CCCCC2)nn(-c2ccc(Cl)cc2Cl)c1-c1ccc(Cl)cc1` [SR 141716A, reference compound], the blocking effect result with human B cells (wide concentration range, with CP 55940 (or Δ^9 -THC or WIN 55212-2) at 10^-9 M) is reported as “no blocking effect was observed”.
